The values below come from article PMC11790949, “A multiplex method for rapidly identifying viral protease inhibitors” (Molecular Systems Biology, 2025).

“And” between values parts separate entries of the source, which are not always exact repeats. Equal entries are not always repeated.

The target of assay [1] is T1, SARS-CoV-2 3CL protease (Severe acute respiratory syndrome coronavirus 2, UniProt P0DTD1). Description: Mass spectrometry (MALDI-TOF) analysis of protein-inhibitor complex. It is filed as binding. Conditions: 50 μM protease, 500 μM inhibitor, 1 h at 4 °C. The protocol: For MALDI-TOF MS analysis, 1 µL of the protein-inhibitor complex (3CL protease only and 3CL protease-CB6778425) was mixed with 9 µL of 10 mg/mL sinapinic acid in the matrix solution (70:30 water/acetonitrile, with 0.1% TFA). About 1.0 µL of the final mix was deposited onto the target carrier and allowed to air dry. MALDI spectra of the protein-inhibitor complex were compared with ligand-free 3CL protease to determine the mass shift. MALDI spectra were collected with the software flexControl, while MALDI data were analyzed by flexAnalysis.

Assay [2] has as its target T1, SARS-CoV-2 3CL protease. Put plainly: Biochemical inhibition of peptide cleavage by purified SARS-CoV-2 3CL protease (fluorogenic).
Where [3] appears, read: read-out: SARS-CoV-2 3CL Inhibition (%).

In the case of `O=C(Oc1ccc2ccc(=O)oc2c1)c1ccco1` [CB6778425], in assay [1], the “mass shift in the protease-inhibitor complex” value is given as ~ 95 Da. Moreover, in assay [2] (setting [3]), the inhibition at 0.000762939 µM worked out at 0.215%, the inhibition at 0.00152588 µM was found to be 4.28%, the inhibition at 0.0244141 µM was 19.7% and the inhibition at 0.0488281 µM turned out to be 39.2%. In addition, in assay [2] (setting [3]), the inhibition at 0.0976563 µM was 62.7%, the inhibition at 0.19382 µM was 104%, the inhibition at 0.195313 µM is 85.1% and the inhibition at 0.390625 µM was found to be 94.5%. Also, in assay [2] (setting [3]), the inhibition at 0.49485 µM is 102%, the inhibition at 0.78125 µM came to 98.7%, the inhibition at 0.79588 µM was found to be 95% and the inhibition at 1.09691 µM is 96.4%. Besides, in assay [2] (setting [3]), the inhibition at 1.39794 µM came to 103%, the inhibition at 1.69897 µM stood at 98%, the inhibition at 2 µM came to 95% and the inhibition at 2.30103 µM amounted to 90.6%. Also, the inhibition at […] in assay [2] (setting [3]) was determined as 11.4%.
For `CCc1cc(=O)oc2cc(OC(=O)c3ccco3)ccc12` [CB6728297], in assay [2], the IC50 worked out at 245 nM and the “shift of IC50 upon pre-incubation with SARS-CoV-2 3CL” value is listed as “shifts to lower IC50s”. Further, in assay [2] (setting [3]), the inhibition at 0.0976563 µM came to 9.07%; the inhibition at 0.19382 µM is 94.7% and 89.2%; the inhibition at 0.195313 µM was 39.5%; the inhibition at 0.390625 µM is 64.9%. Also, in assay [2] (setting [3]), the inhibition at 0.49485 µM was determined as 88.9%, the inhibition at 0.78125 µM is 90.8%, the inhibition at 0.79588 µM is 93.8% and the inhibition at 1.09691 µM came to 98.7%. In assay [2] (setting [3]), the inhibition at 1.39794 µM came out at 93.4%, the inhibition at 1.69897 µM came to 95.6%, the inhibition at 2 µM was 88.8% and the inhibition at 2.30103 µM was found to be 99.1%.
For the molecule `O=C(Oc1ccc2ccc(=O)oc2c1)c1cccs1` [CB6762077], in assay [2], the IC50 was 1100 nM and the “shift of IC50 upon pre-incubation with SARS-CoV-2 3CL” value is reported as “shifts to lower IC50s”. In assay [2] (setting [3]), the inhibition at 0.19382 µM came out at 71.8%, the inhibition at 0.390625 µM is 12.9%, the inhibition at 0.49485 µM was determined as 77.7% and the inhibition at 0.78125 µM is 30.2%. Moreover, in assay [2] (setting [3]), the inhibition at 0.79588 µM is 75.9%, the inhibition at 1.09691 µM was 90.1%, the inhibition at 1.39794 µM worked out at 88.9% and the inhibition at 1.69897 µM was 94.3%. In addition, the inhibition at 2 µM in assay [2] (setting [3]) came to 112%.
